{"source": "patent US8404692B2", "about": "“Pyrimidin-4-yl-3, 4-dihydro-2H-pyrrolo [1,2A] pyrazin-1-one compounds” (Cyclacel Limited, priority 2005, dated 2013)", "key": {"[1]": {"test_system": "MiaPaCa", "assay": "MTT cytotoxicity assay MiaPaCa", "format": "cell-based", "settings": "Homo sapiens, MIA PaCa-2; MiaPaCa cells, 96-h MTT", "experimental": "(§1) The compounds of the invention were subjected to a standard cellular proliferation assay using cell lines […] and MiaPaCa (obtained from The European Collection of Cell Cultures). […] C.; Thomas, D. G.; Darling, J. L. Anti Cancer Drugs 1996, 7, 331-8; Loveland, B. E.; Johns, T. G.; Mackay, I. R.; Vaillant, F.; Wang, Z. X.; Hertzog, P. J. Biochemistry International 1992, 27, 501-10). In short: cells were seeded into 96-well plates according to doubling time and incubated overnight at 37° C. […] MTT was made up as a stock of 5 mg/mL in cell media and filter-sterilised. Media was removed from cells followed by a wash with 200 μL PBS. MTT solution was then added at 20 μL per well and incubated in the dark at 37° C. for 4 h. MTT solution was removed and cells again washed with 200 μL PBS. MT dye was solubilised with […] per well of DMSO with agitation. Absorbance was read at 540 nm and data analysed using curve-fitting software (GraphPad Prism version 3.00 for Windows, GraphPad Software, San Diego Calif. USA) to determine IC50 values (concentration of test compound which inhibits cell growth by 50%)."}, "[2]": {"test_system": "nuclear phospho-Histone H3 and/or MPM2 staining", "assay": "Cellomics Arrayscan assay for mitotic index (PH3 and MPM2 staining)", "format": "cell-based", "settings": "for IC50: IC50 of phosphorylated Histone H3 staining normalised using MPM2 staining, read-out: MI (Cellomics) PH3/MPM2 IC50*; for MI (Cellomics) MPM2 % of Control**: cells stained with MPM2 Ab after treatment, as % of MPM2 stained cells treated with vehicle (DMSO)", "experimental": "The percentage of cells with nuclear phospho-Histone H3 and/or MPM2 staining were determined in 96-well plate assays using the Cellomics Arrayscan Mitotic Index HitKit protocol (Cellomics Inc). Briefly, cells were plated at 10^4 cells per well and incubated for 16-18 h at 37° C. Compounds were added and the cells incubated for the appropriate time before a 15 min fixation in 3.7% formaldehyde in wash buffer (Cellomics Inc.). Cells were permeabilised in 0.2% Triton in wash buffer for 15 min, washed, then incubated with primary antibodies that specifically recognise mitotic epitopes; rabbit anti-phosphohistone H3 (Upstate 06570) or mouse anti-phospho-Ser/Thr-Pro MPM2 (Upstate 05-368). After a 1 h incubation cells were washed and incubated with secondary FITC-conjugated anti-mouse and/or TRITC-conjugated anti-rabbit secondary antibodies (Jackson laboratories) and Hoescht dye. After a further 1 h incubation the cells were washed, then the plate was analysed using a Cellomics Arrayscan II automated fluorescent microscopy system to detect nuclear fluorescent staining. Data for 2000 cells per well were stored and the percentage of cells expressing mitotic epitopes compared to total cells (stained with Hoescht dye) was calculated using the Cellomics mitotic index algorithm."}, "[3]": {"biological_target": "human CDK7/cyclin H (Homo sapiens, UniProt P50613)", "sequence (P50613 whole entry)": "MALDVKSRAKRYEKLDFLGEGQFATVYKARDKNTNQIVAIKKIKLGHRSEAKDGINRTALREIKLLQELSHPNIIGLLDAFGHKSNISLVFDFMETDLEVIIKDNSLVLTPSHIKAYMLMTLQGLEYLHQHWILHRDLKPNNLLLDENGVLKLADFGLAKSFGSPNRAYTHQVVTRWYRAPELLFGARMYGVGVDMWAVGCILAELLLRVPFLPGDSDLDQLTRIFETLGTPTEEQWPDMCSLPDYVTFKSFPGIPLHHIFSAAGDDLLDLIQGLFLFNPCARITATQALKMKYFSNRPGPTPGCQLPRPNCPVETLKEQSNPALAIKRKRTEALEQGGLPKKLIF", "sequence (P51946 whole entry partner)": "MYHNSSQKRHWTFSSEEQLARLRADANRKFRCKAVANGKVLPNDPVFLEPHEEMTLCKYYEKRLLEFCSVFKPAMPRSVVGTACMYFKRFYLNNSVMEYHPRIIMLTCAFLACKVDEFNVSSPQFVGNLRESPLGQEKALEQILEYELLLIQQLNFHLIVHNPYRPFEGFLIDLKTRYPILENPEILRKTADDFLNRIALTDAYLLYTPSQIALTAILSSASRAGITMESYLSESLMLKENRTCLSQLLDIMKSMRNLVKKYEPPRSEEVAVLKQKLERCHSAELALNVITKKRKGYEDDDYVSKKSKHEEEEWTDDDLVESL", "assay": "CDK 7 and 9 assays: CDK7/H", "format": "biochemical", "settings": "in vitro kinase data", "experimental": "(§2) The compounds of the invention above were investigated for their ability to inhibit the enzymatic activity of various protein kinases. This was achieved by measurement of incorporation of radioactive phosphate from ATP into appropriate polypeptide substrates. Recombinant protein kinases and kinase complexes were produced or obtained commercially. Assays were performed using 96-well plates and appropriate assay buffers (typically 25 mM β-glycerophosphate, 20 mM MOPS, 5 mM EGTA, 1 mM DTT, 1 mM […], pH 7.4), into which were added 2-4 μg of active enzyme with appropriate substrates. The reactions were initiated by addition of Mg/ATP mix (15 mM MgCl2+100 μM ATP with 30-50 kBq per well of [γ-^32P]-ATP) and mixtures incubated as required at 30° C. Reactions were stopped on ice, followed by filtration through p81 filterplates or GF/C filterplates (Whatman Polyfiltronics, Kent, UK). After washing 3 times with 75 mM aq orthophosphoric acid, plates were dried, scintillant added and incorporated radioactivity measured in a scintillation counter (TopCount, Packard Instruments, Pangbourne, Berks, UK). Compounds for kinase assay were made up as 10 mM stocks in DMSO and diluted into 10% DMSO in assay buffer. Data was analysed using curve-fitting software (GraphPad Prism version 3.00 for Windows, GraphPad Software, San Diego Calif. USA) to determine IC50 values (concentration of test compound which inhibits kinase activity by 50%).\nCTD peptide substrate (biotinyl-Ahx-(Tyr-Ser-Pro-Thr-Ser-Pro-Ser)4-NH2; 1-2 mg/mL) and recombinant human CDK7/cyclin H, CDK9/cyclin T1, or CDK9/cyclin K (0.5-2 μg) were incubated for 45 min at 30° C. in the presence of varying amounts of test compound in 20 mM MOPS pH 7.2, 25 mM β-glycerophosphate, 5 mM EGTA, 1 mM DTT, 1 mM sodium vanadate, 15 mM MgCl2, and 100 μM ATP (containing a trace amount of ^32PγATP) in a total volume of 25 μL in a 96-well microtiter plate. […] Microscint 40 scintillation liquid (50 μL) was added to each well, and the amount of ^32P incorporation for each sample was measured using a Packard Topcount microplate scintillation counter."}, "[4]": {"biological_target": "T1, aurora-A (human) (Homo sapiens, UniProt O14965)", "T1 construct": "purchased Upstate, Dundee, UK", "T1 sequence (O14965 1-403)": "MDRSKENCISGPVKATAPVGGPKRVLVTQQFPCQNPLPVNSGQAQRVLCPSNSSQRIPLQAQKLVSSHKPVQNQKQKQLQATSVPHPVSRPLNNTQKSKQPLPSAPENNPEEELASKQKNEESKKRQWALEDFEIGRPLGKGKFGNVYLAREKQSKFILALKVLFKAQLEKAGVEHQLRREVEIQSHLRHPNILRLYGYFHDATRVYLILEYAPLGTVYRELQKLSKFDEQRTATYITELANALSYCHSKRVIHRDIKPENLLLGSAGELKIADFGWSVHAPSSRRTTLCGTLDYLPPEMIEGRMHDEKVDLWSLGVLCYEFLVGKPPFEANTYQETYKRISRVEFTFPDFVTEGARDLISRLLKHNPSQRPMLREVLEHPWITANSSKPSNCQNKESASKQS", "assay": "Aurora-A (human) kinase assay", "format": "biochemical", "settings": "read-out: Activity (Aurora A activity, IC50 grading)", "method_in_brief": "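Radiometric assay measuring [γ-32P] transfer from 100 μM ATP to 500 μM Kemptide by 2-5 ng active human aurora-A, pH 7.5 buffer, 30 min at 30° C. Incorporated label captured on P81 filters and counted by scintillation; IC50 from curve fitting.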"}, "[5]": {"test_system": "A2780", "assay": "MTT cytotoxicity assay A2780", "format": "cell-based", "settings": "Homo sapiens; A2780 cells, 96-h MTT", "experimental": "as §1"}, "[6]": {"biological_target": "CDK2/E (Homo sapiens, UniProt P24941)", "assay": "In vitro kinase assay CDK2/E", "format": "biochemical", "settings": "in vitro kinase data", "experimental": "as §2, with “Data was analysed using curve-fitting software (GraphPad Prism version 3.00 for Windows, GraphPad Software, San Diego Calif. USA) to determine IC50 values (concentration of test compound which inhibits kinase activity by 50%).” left out"}}, "data": [{"compound": "Cc1c(-c2ccnc(Nc3ccc(F)cc3)n2)c(C)n2c1C(=O)NCC2", "note": "[Example I-1, 7-[2-(4-Fluoro-phenylamino)-pyrimidin-4-yl]-6,8-dimethyl-3,4-dihydro-2H-pyrrolo[1,2-a]pyrazin-1-one]", "values": [{"measurement": "IC50", "setting": "[1]", "result": "> 10000", "unit": "nM"}, {"measurement": "IC50", "setting": "[2]", "result": 16300, "unit": "nM"}, {"measurement": "MI (Cellomics) MPM2 % of Control**", "setting": "[2]", "result": 239, "unit": "%"}, {"measurement": "Ki", "setting": "[3]", "result": 2990, "unit": "nM"}, {"measurement": "IC50", "setting": "[4]", "result": "< 1000", "unit": "nM"}, {"measurement": "IC50", "setting": "[5]", "result": 4470, "unit": "nM"}, {"measurement": "Ki", "setting": "[6]", "result": 1130, "unit": "nM"}]}, {"compound": "Cc1c(-c2ccnc(Nc3ccc(N4CCOCC4)cc3)n2)c(C)n2c1C(=O)NCC2", "note": "[Example I-2, 6,8-Dimethyl-7-[2-(4-morpholin-4-yl-phenylamino)-pyrimidin-4-yl]-3,4-dihydro-2H-pyrrolo[1,2-a]pyrazin-1-one]", "values": [{"measurement": "IC50", "setting": "[1]", "result": 1800, "unit": "nM"}, {"measurement": "IC50", "setting": "[2]", "result": 9200, "unit": "nM"}, {"measurement": "MI (Cellomics) MPM2 % of Control**", "setting": "[2]", "result": 333, "unit": "%"}, {"measurement": "Ki", "setting": "[3]", "result": 3410, "unit": "nM"}, {"measurement": "IC50", "setting": "[4]", "result": "< 1000", "unit": "nM"}, {"measurement": "IC50", "setting": "[5]", "result": 575, "unit": "nM"}]}, {"compound": "COc1cc(Nc2nccc(-c3c(C)c4n(c3C)CCNC4=O)n2)ccc1N1CCOCC1", "note": "[Example I-3, 7-[2-(3-Methoxy-4-morpholin-4-yl-phenylamino)-pyrmidin-4-yl]-6,8-dimethyl-3,4-dihydro-2H-pyrrolo[1,2-a]pyrazin-1-one]", "values": [{"measurement": "IC50", "setting": "[1]", "result": 1850, "unit": "nM"}, {"measurement": "IC50", "setting": "[2]", "result": 4740, "unit": "nM"}, {"measurement": "MI (Cellomics) MPM2 % of Control**", "setting": "[2]", "result": 317, "unit": "%"}, {"measurement": "Ki", "setting": "[3]", "result": 2790, "unit": "nM"}, {"measurement": "IC50", "setting": "[4]", "result": "< 100", "unit": "nM"}, {"measurement": "IC50", "setting": "[5]", "result": 750, "unit": "nM"}]}, {"compound": "Cc1c(-c2ccnc(Nc3cccc(CCC(=O)N(C)CCN(C)C)c3)n2)c(C)n2c1C(=O)NCC2", "note": "[Example I-106, N-(2-Dimethylamino-ethyl)-3-{3-[4-(6,8-dimethyl-1-oxo-1,2,3,4-tetrahydro-pyrrolo[1,2-a]pyrazin-7-yl)-pyrimidin-2-ylamino]-phenyl}-N-methyl-propionamide]", "values": [{"measurement": "IC50", "setting": "[4]", "result": "< 1000", "unit": "nM"}]}, {"compound": "Cc1c(-c2ccnc(Nc3cccc(CCC(=O)N(C)CCCN(C)C)c3)n2)c(C)n2c1C(=O)NCC2", "note": "[Example I-107, N-(3-Dimethylamino-propyl)-3-{3-[4-(6,8-dimethyl-1-oxo-1,2,3,4-tetrahydro-pyrrolo[1,2-a]pyrazin-7-yl)-pyrimidin-2-ylamino]-phenyl}-N-methyl-propionamide]", "values": [{"measurement": "IC50", "setting": "[4]", "result": "< 1000", "unit": "nM"}]}, {"compound": "Cc1c(-c2ccnc(Nc3cccc(CCC(=O)N4CCOCC4)c3)n2)c(C)n2c1C(=O)NCC2", "note": "[Example I-108, 6,8-Dimethyl-7-{2-[3-(3-morpholin-4-yl-3-oxo-propyl)-phenylamino]-pyrimidin-4-yl}-3,4-dihydro-2H-pyrrolo[1,2-a]pyrazin-1-one]", "values": [{"measurement": "IC50", "setting": "[4]", "result": "< 100", "unit": "nM"}]}, {"compound": "CC(=O)N1CCN(C(=O)CCc2cccc(Nc3nccc(-c4c(C)c5n(c4C)CCNC5=O)n3)c2)CC1", "note": "[Example I-109, 7-(2-{3-[3-(4-Acetyl-piperazin-1-yl)-3-oxo-propyl]-phenylamino}-pyrimidin-4-yl)-6,8-dimethyl-3,4-dihydro-2H-pyrrolo[1,2-a]pyrazin-1-one]", "values": [{"measurement": "IC50", "setting": "[4]", "result": "< 1000", "unit": "nM"}]}, {"compound": "Cc1c(-c2ccnc(Nc3cccc(CCC(=O)N4CCN(C)CC4)c3)n2)c(C)n2c1C(=O)NCC2", "note": "[Example I-110, 6,8-Dimethyl-7-(2-{3-[3-(4-methyl-piperazin-1-yl)-3-oxo-propyl]-phenylamino}-pyrimidin-4-yl)-3,4-dihydro-2H-pyrrolo[1,2-a]pyrazin-1-one]", "values": [{"measurement": "IC50", "setting": "[4]", "result": "< 1000", "unit": "nM"}]}, {"compound": "Cc1c(-c2ccnc(Nc3cccc(CCC(N)=O)c3)n2)c(C)n2c1C(=O)NCC2", "note": "[Example I-111, 3-{3-[4-(6,8-Dimethyl-1-oxo-1,2,3,4-tetrahydro-pyrrolo[1,2-a]pyrazin-7-yl)-pyrimidin-2-ylamino]-phenyl}-propionamide]", "values": [{"measurement": "IC50", "setting": "[4]", "result": "< 100", "unit": "nM"}]}, {"compound": "CNC(=O)CCc1cccc(Nc2nccc(-c3c(C)c4n(c3C)CCNC4=O)n2)c1", "note": "[Example I-112, 3-{3-[4-(6,8-Dimethyl-1-oxo-1,2,3,4-tetrahydro-pyrrolo[1,2-a]pyrazin-7-yl)-pyrimidin-2-ylamino]-phenyl}-N-methyl-propionamide]", "values": [{"measurement": "IC50", "setting": "[4]", "result": "< 100", "unit": "nM"}]}, {"compound": "Cc1c(-c2ccnc(Nc3cccc(CCC(=O)N(C)C)c3)n2)c(C)n2c1C(=O)NCC2", "note": "[Example I-113, 3-{3-[4-(6,8-Dimethyl-1-oxo-1,2,3,4-tetrahydro-pyrrolo[1,2-a]pyrazin-7-yl)-pyrimidin-2-ylamino]-phenyl}-N,N-dimethyl-propionamide]", "values": [{"measurement": "IC50", "setting": "[4]", "result": "< 100", "unit": "nM"}]}, {"compound": "COc1cc(C(=O)NC2CCN(C)CC2)ccc1Nc1nccc(-c2c(C)c3n(c2C)CCNC3=O)n1", "note": "[Example I-114, 4-[4-(6,8-Dimethyl-1-oxo-1,2,3,4-tetrahydro-pyrrolo[1,2-a]pyrazin-7-yl)-pyrimidin-2-ylamino]-3-methoxy-N-(1-methyl-piperidin-4-yl)-benzamide]", "values": [{"measurement": "IC50", "setting": "[4]", "result": "< 10000", "unit": "nM"}]}, {"compound": "Cc1c(-c2ccnc(Nc3ccc(C(=O)NC4CCN(C)CC4)cc3)n2)c(C)n2c1C(=O)NCC2", "note": "[Example I-115, 4-[4-(6,8-Dimethyl-1-oxo-1,2,3,4-tetrahydro-pyrrolo[1,2-a]pyrazin-7-yl)-pyrimidin-2-ylamino]-N-(1-methyl-piperidin-4-yl)-benzamide]", "values": [{"measurement": "IC50", "setting": "[4]", "result": "< 100", "unit": "nM"}]}]}
